Experimental findings from patent publication US12552737B2, “Salts of (2R, 6R)-hydroxynorketamine, their crystal forms, and methods of making the same” (THE UNITED STATES OF AMERICA, AS REPRESENTED BY THE …, priority 2019, dated 2026) are described below.

Data set [1] in a line: Dynamic vapor sorption (DVS) sorption-desorption. To be noted: for hygroscopicity: DVS, water, 25° C., 0% RH to 95% RH. Format: physicochemical. Here is the method:
Dynamic Vapor Sorption (DVS)
Typically, 20-50 mg of the test substances were mounted in a gauze basket and transferred to the sample port. Excess static electricity was removed throughout sample handling and sample mounting using a 210Po static eliminator. Instrument performance checks were completed using traceable samples of sodium chloride and lithium chloride.

The conditions of data set [2]: based on X-ray powder diffraction data.
Procedure: X-Ray Powder Diffraction (XRPD)
X-ray powder diffractograms were acquired using a Bruker D5000 diffractometer in Bragg-Brentano configuration. Extended acquisition parameters were employed for each batch of the drug substance, as detailed below. • Acquisition parameters: • Source: CuKα • Wavelength: 1.5406 Å • Scan range: 2-40° (2θ) • Step size: 0.01° (2θ) • Time per step: 4.0 s • Divergence slit width: 2 mm • Antiscatter slit width: 2 mm • Detector slit width: 0.2 mm • Sample rotation: Engaged • Tube accelerating potential: 40 kV • Tube accelerating current: 30 mA • Temperature: Ambient (nominally 18-22° C.)
Approximately 2 mg of each sample was mounted on a silicon base for the analyses.
All the data were smoothed by use of Fourier algorithms and the background was subtracted from each diffractogram. Instrument performance checks were completed prior to measurements using a NIST traceable standard of corundum and also using a standard of Arkansas stone quartz.
Dynamic vapor sorption-desorption experiments were carried out using a DVS Resolution instrument supplied by Surface Measurement Systems. […]

Turning to `N[C@@]1(c2ccccc2Cl)CCC[C@@H](O)C1=O.O=C(O)c1ccccc1O` [RR-HNK salicylate, 2R,6R-hydroxynorketamine (RR-HNK) Salicylate], the figures for the hygroscopicity result in data set [1] and in data set [1] (listed as (2R,6R)-hydroxynorketamine salicylate) were “non-hygroscopic” and “very low hygroscopicity”, respectively. Also, in data set [1] (over the entire range of relative humidities (0% RH to 95% RH)), the “water acquired in DVS isotherm” value is reported as “acquires very little water”. In addition, in data set [2], the “change of physical form on exposure to elevated relative humidities” value was “does not change the physical form”.

Turning to `NC1(c2ccccc2Cl)CCCC(O)C1=O.O=C(O)CC(=O)O` (stereo not drawn) [RR-HNK malonate, 2R,6R-hydroxynorketamine (RR-HNK) Malonate], the figures for the hygroscopicity result in data set [1] and in data set [1] (listed as (2R,6R)-hydroxynorketamine malonate) were “non-hygroscopic” and “very low hygroscopicity”, respectively.
